Consider three molecules from patent US20170050945A1, “COMPOSITIONS AND METHODS FOR THE TREATMENT OF SARCOIDOSIS” (INSMED INCORPORATED, priority 2015, published 2017).

By IC50 is commonly meant the point on the concentration scale where inhibition reaches its midpoint. Broadly, the Emax is the greatest response seen or fitted, relative to the assay's reference.

For data set [1], the target named is T1, Human Inosine 5′-Monophosphate Dehydrogenase 1 (IMPDH) (Homo sapiens, UniProt P20839).
T1 construct: purchased R&D Systems 8904DH
T1 sequence (P20839 whole entry): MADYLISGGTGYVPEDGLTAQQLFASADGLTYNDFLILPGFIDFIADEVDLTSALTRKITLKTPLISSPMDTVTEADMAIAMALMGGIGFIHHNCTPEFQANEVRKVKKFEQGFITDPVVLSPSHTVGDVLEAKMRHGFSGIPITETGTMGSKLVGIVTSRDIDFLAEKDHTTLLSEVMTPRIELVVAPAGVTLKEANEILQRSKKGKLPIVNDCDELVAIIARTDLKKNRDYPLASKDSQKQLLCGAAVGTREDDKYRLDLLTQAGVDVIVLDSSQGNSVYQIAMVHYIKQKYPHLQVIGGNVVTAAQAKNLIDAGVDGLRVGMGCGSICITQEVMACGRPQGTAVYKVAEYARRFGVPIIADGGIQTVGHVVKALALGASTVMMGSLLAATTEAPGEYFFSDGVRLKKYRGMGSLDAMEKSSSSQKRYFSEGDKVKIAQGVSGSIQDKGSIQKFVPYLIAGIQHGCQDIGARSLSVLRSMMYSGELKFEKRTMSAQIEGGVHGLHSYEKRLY
The data set can be described thus: Inhibition of human inosine 5′-monophosphate dehydrogenase (IMPDH assay kit). The data set is classed as biochemical. The text has this: Human Inosine 5′-Monophosphate Dehydrogenase 1 (IMPDH) catalyzes the nicotinamide adenine dinucleotide (NAD)-dependent oxidation of inosine-5′-monophosphate (IMP) to xanthosine-5′-monophosphate (XMP), which is the committed step in de novo guanosine nucleotide biosynthesis. B and T lymphocytes depend on IMPDH activity to generate the guanosine nucleotide levels needed to initiate a proliferative response to mitogen or antigen.
A comparison of the ability of MPA and hexadecyl mycophenolate (mono-C16MP) to inhibit IMPDH was undertaken.
IMPDH (R&D Systems 8904DH) was incubated with mycophenolic acid (MPA) and, separately, mono-C16MP at concentrations ranging from about 0.015 to 15 μM. The IMPDH activity was determined using a BMR Service IMPDH assay kit (E-119).
Inhibition of IMPDH was calculated as a percentage of IMPDH activity in the absence of MPA.

The nature of data set [2]: Lung to plasma MPA ratio after inhaled dosing of MPS, MMF or mono-C16MP in mice. It is filed as in vivo. Conditions: inhalation, C57BL/6 mice, 0-6 h post-dose. On the procedure:
Studies to determine the lung to plasma ratio obtained by inhalation of mycophenolate sodium (MPS), mycophenolate mofetil (MMF), and hexadecyl mycophenolate (mono-C16MP) were conducted.
In each study group, C57BL/6 mice were given MPS, MMF or mono-C16MP by inhalation and the lung and plasma mycophenolic acid (MPA) concentrations were measured at t=0, 0.5, 1, 2, 4, and 6 h post-dose.
For each mouse in the study, the lung to plasma MPA ratios were calculated; the individual calculated ratios were averaged for each treatment group and the average values were plotted, shown in FIG. 6.

Data set [3] has as its system LPS-stimulated TNF-α production in rat alveolar macrophages (NR8383). As to the kind of experiment: Inhibition of LPS-stimulated TNF-α production in rat alveolar macrophages (NR8383), TNF ELISA. It is filed as cell-based. The conditions noted are these: Macrophage, NR8383 cells, co-treated with 25 ng/mL LPS, 20 h. As for the experimental part:
(§1) Rat alveolar macrophages (NR8383) were co-treated with 25 ng/mL lipopolysaccharide (LPS) and mycophenolate sodium at concentrations ranging from 0.15 to about 15 μm for a period of 20 h. After this period, the cell supernatants were collected for TNF measurement and the remaining macrophages were assessed for cytotoxicity. TNF concentrations were assayed using a rat TNF ELISA kit available from ThermoFisher. Cytotoxicity was determined using the CellTox green assay available from Promega.
(§2) Inhibition of TNF-α production was calculated as a percentage of LPS-stimulated TNF production in the absence of mycophenolate sodium.
A general note: An ELISA detects its analyte on a solid surface through an enzyme-linked reagent.

The test system of data set [4] is rat alveolar macrophages (NR8383). The data set can be described thus: Cytotoxicity toward rat alveolar macrophages (NR8383), CellTox green assay. The data set is classed as cell-based. Conditions: NR8383 cells, any concentration tested (0.15 to about 15 μm), 20 h. On the procedure: as §1, §2
For data set [5], the system named is LPS-stimulated TNF-α production in THP-1 derived human macrophages. As to the kind of experiment: Inhibition of LPS-stimulated TNF-α production in human THP-1 derived macrophages, TNF ELISA. The data set is classed as cell-based. The conditions noted are these: 4 h pre-incubation, then 100 pg/mL LPS for 16 h. As for the experimental part: (§3) THP-1 cells were cultured in media with 50 ng/mL phorbol myristate acetate (PMA) for 24 h and then in fresh media without PMA for an additional 24 h. […] The well plates were treated with mycophenolate sodium at concentrations ranging from 0.03 to 10 μm and incubated for a period for 4 h. After this period, LPS was added to each well plate at a concentration of 100 pg/mL and the LPS-, mycophenolate-treated well plates were incubated for 16 h. After 16 h, the cell supernatants were collected for TNF measurement and the remaining macrophages were assessed for cytotoxicity. TNF concentrations were assayed using a human TNF ELISA kit available from ThermoFisher. Cytotoxicity was determined using the CellTox green assay available from Promega.
as §2

The test system of data set [6] is THP-1 derived human macrophages. The data set can be described thus: Cytotoxicity toward human THP-1 derived macrophages, CellTox green assay. It is filed as cell-based. On the procedure: as §3, §2

SMILES strings stand for the structures.

The molecule `COc1c(C)c2c(c(O)c1C/C=C(\C)CCC(=O)O)C(=O)OC2` [MPA, (4E)-6-(4-hydroxy-6-methoxy-7-methyl-3-oxo-1,3-dihydro-2-benzofuran-5-yl)-4methylhex-4-enoic acid] registered a 50% inhibitory concentration (IC50) in data set [1] of 140 nM.

`CCCCCCCCCCCCCCCCOC(=O)CC/C(C)=C/Cc1c(O)c2c(c(C)c1OC)COC2=O` [mono-C16MP, hexadecyl mycophenolate]: the “Lung to plasma exposure ratio of MPA compared to the ratio obtained with MPS or MMF” value in data set [2] was “higher lung to plasma exposure ratio”. Besides, the “Inhibition of IMPDH” value in data set [1] (about 0.015 to 15 μM tested) is reported as “does not inhibit IMPDH in a concentration-dependent manner”.

Regarding `COc1c(C)c2c(c(O)c1C/C=C(\C)CCC(=O)O)C(=O)OC2` [mycophenolate sodium], the Emax in data set [3] turned out to be 54%; in data set [5], 67%. Also, the IC50 in data set [3] was 1500 nM; in data set [5], 1400 nM. For the same molecule, the Cytotoxicity result in data set [4] is reported as “no significant cytotoxicity”; in data set [6] (3 μM, P<0.05), 6.6%; in data set [6] (10 μM, P<0.05) it was 8.9%; in data set [6] (concentrations <3 μM) it was “no significant cytotoxicity”.
